Data reported in BindingDB's records for doi:10.1021/jm020889p (2002).

These compounds were tested against Sigma non-opioid intracellular receptor 1 (Cavia porcellus) (UniProt Q60492) (assay: Ability to displace [3H](+)-pentazocine from Sigma opioid receptor type 1 of guinea pig brain).
Chain of Sigma non-opioid intracellular receptor 1 (Cavia porcellus) (Q60492 whole entry, looked up): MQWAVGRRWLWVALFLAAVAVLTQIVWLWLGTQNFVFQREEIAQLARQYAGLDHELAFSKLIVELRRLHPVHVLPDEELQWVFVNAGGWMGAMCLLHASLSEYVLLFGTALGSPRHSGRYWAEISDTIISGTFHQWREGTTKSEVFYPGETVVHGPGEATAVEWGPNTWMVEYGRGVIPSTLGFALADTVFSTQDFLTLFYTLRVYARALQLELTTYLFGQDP
N#CC1OC2(CCN(Cc3ccccc3)CC2)c2ccccc21 (configuration not stated) [1'-benzylspiro[1,3-dihydroisobenzofuran-1,4'-(hexahydropyridine)]-3-carbonitrile] showed a Ki of 2.18 nM. In the case of N#CCC1OC2(CCN(Cc3ccccc3)CC2)c2ccccc21 (configuration not stated) [1'-benzylspiro[1,3-dihydroisobenzofuran-1,4'-(hexahydropyridine)]-3-ylmethyl cyanide], the Ki is reported as 2.16 nM. Work on OCC1Cc2ccccc2C2(CCN(Cc3ccccc3)CC2)O1 (configuration not stated) [1'-benzylspiro[3,4-dihydro-1H-isochromene-1,4'-(hexahydropyridine)]-3-ylmethanol] yielded a Ki of 7.16 nM. In the case of N#CCC1Cc2ccccc2C2(CCN(Cc3ccccc3)CC2)O1 (configuration not stated) [1'-benzylspiro[3,4-dihydro-1H-isochromene-1,4'-(hexahydropyridine)]-3-ylmethyl cyanide], the Ki is reported as 15.9 nM. With CNCCC1Cc2ccccc2C2(CCN(Cc3ccccc3)CC2)O1 (configuration not stated) [1N-methyl-2-[1'-benzylspiro[3,4-dihydro-1H-isochromene-1,4'-(hexahydropyridine)]-3-yl]-1-ethanamine] the Ki was 148 nM. CNC(=O)CC1Cc2ccccc2C2(CCN(Cc3ccccc3)CC2)O1 (configuration not stated) [1N-methyl-2-[1'-benzylspiro[3,4-dihydro-1H-isochromene-1,4'-(hexahydropyridine)]-3-yl]acetamide] gave a Ki of 170 nM. Compound OCCC1Cc2ccccc2C2(CCN(Cc3ccccc3)CC2)O1 (configuration not stated) [2-[1'-benzylspiro[3,4-dihydro-1H-isochromene-1,4'-(hexahydropyridine)]-3-yl]-1-ethanol] has a Ki of 12.7 nM. O=CCC1Cc2ccccc2C2(CCN(Cc3ccccc3)CC2)O1 (configuration not stated) [2-[1'-benzylspiro[3,4-dihydro-1H-isochromene-1,4'-(hexahydropyridine)]-3-yl]acetaldehyde] showed a Ki of 55.1 nM. CCOC(=O)C1OC2(CCN(Cc3ccccc3)CC2)c2ccccc21 (configuration not stated) [ethyl 1'-benzylspiro[1,3-dihydroisobenzofuran-1,4'-(hexahydropyridine)]-3-carboxylate] gave a Ki of 8.95 nM. CCOC(=O)C1Cc2ccccc2C2(CCN(Cc3ccccc3)CC2)O1 (configuration not stated) [ethyl 1'-benzylspiro[3,4-dihydro-1H-isochromene-1,4'-(hexahydropyridine)]-3-carboxylate] was tested, and the Ki was 9.33 nM. CCOC(=O)CC1OC2(CCN(Cc3ccccc3)CC2)c2ccccc21 (configuration not stated) [ethyl 2-[1'-benzylspiro[1,3-dihydroisobenzofuran-1,4'-(hexahydropyridine)]-3-yl]acetate] showed a Ki of 15.1 nM. CCOC(=O)CC1Cc2ccccc2C2(CCN(Cc3ccccc3)CC2)O1 (configuration not stated) [ethyl 2-[1'-benzylspiro[3,4-dihydro-1H-isochromene-1,4'-(hexahydropyridine)]-3-yl]acetate] showed a Ki of 183 nM.

Each compound was assayed against Sigma-2 receptor (TMEM97) (Rattus norvegicus) (assay: Ability to displace [3H]ditolylguanidine in the presence of 100 nM (+)-pentazocine from Sigma opioid receptor type 2 of rat liver).
In the case of N#CCC1OC2(CCN(Cc3ccccc3)CC2)c2ccccc21 (configuration not stated) [1'-benzylspiro[1,3-dihydroisobenzofuran-1,4'-(hexahydropyridine)]-3-ylmethyl cyanide], the Ki is reported as 1660 nM. With OCC1Cc2ccccc2C2(CCN(Cc3ccccc3)CC2)O1 (configuration not stated) [1'-benzylspiro[3,4-dihydro-1H-isochromene-1,4'-(hexahydropyridine)]-3-ylmethanol] the Ki was 2090 nM. Work on N#CCC1Cc2ccccc2C2(CCN(Cc3ccccc3)CC2)O1 (configuration not stated) [1'-benzylspiro[3,4-dihydro-1H-isochromene-1,4'-(hexahydropyridine)]-3-ylmethyl cyanide] yielded a Ki of 4700 nM. Compound CNCCC1Cc2ccccc2C2(CCN(Cc3ccccc3)CC2)O1 (configuration not stated) [1N-methyl-2-[1'-benzylspiro[3,4-dihydro-1H-isochromene-1,4'-(hexahydropyridine)]-3-yl]-1-ethanamine] has a Ki of 4360 nM. For OCCC1Cc2ccccc2C2(CCN(Cc3ccccc3)CC2)O1 (configuration not stated) [2-[1'-benzylspiro[3,4-dihydro-1H-isochromene-1,4'-(hexahydropyridine)]-3-yl]-1-ethanol], the Ki was 8460 nM. O=CCC1Cc2ccccc2C2(CCN(Cc3ccccc3)CC2)O1 (configuration not stated) [2-[1'-benzylspiro[3,4-dihydro-1H-isochromene-1,4'-(hexahydropyridine)]-3-yl]acetaldehyde] showed a Ki of 9910 nM. CCOC(=O)C1OC2(CCN(Cc3ccccc3)CC2)c2ccccc21 (configuration not stated) [ethyl 1'-benzylspiro[1,3-dihydroisobenzofuran-1,4'-(hexahydropyridine)]-3-carboxylate] gave a Ki of 7130 nM. CCOC(=O)C1Cc2ccccc2C2(CCN(Cc3ccccc3)CC2)O1 (configuration not stated) [ethyl 1'-benzylspiro[3,4-dihydro-1H-isochromene-1,4'-(hexahydropyridine)]-3-carboxylate] was tested, and the Ki was 10500 nM. Work on CCOC(=O)CC1OC2(CCN(Cc3ccccc3)CC2)c2ccccc21 (configuration not stated) [ethyl 2-[1'-benzylspiro[1,3-dihydroisobenzofuran-1,4'-(hexahydropyridine)]-3-yl]acetate] yielded a Ki of 6770 nM. With CCOC(=O)CC1Cc2ccccc2C2(CCN(Cc3ccccc3)CC2)O1 (configuration not stated) [ethyl 2-[1'-benzylspiro[3,4-dihydro-1H-isochromene-1,4'-(hexahydropyridine)]-3-yl]acetate] the Ki was 22700 nM.
